Publication PMC6701825, “Antiproliferative and Antimigratory Effects of a Novel YAP–TEAD Interaction Inhibitor Identified Using in Silico Molecular Docking” (Journal of Medicinal Chemistry, 2019)

What was measured:
[1] = tested on: HeLa cells; assay: Real-time IncuCyte scratch wound migration assay in HeLa cells; type: cell-based, human
Experimental: Cell proliferation was measured using the Click-iT EdU 488 assay (Sigma-Aldrich). Briefly, the cells were treated with indicated concentrations of compounds for 24 h with the last 4 h being in the presence of 10 μM EdU. The cells were fixed in 4% formaldehyde and stained for EdU incorporation, following the kit’s standard protocol. The cells were counterstained with Hoechst 33342 nucleic acid for 20 min. Fluorescent images of at least three fields of view per well were counted using ImageJ software. Real-time analysis of cell migration was performed using an IncuCyte ZOOM live cell imaging system (Essen BioScience) according to the manufacturer’s instructions. Briefly, the cells were seeded (1.2 × 10^4 cells/well for HeLa cells, 1.5 × 10^4 cells/well for RaVSMCs, and 1 × 10^4 cells/well) into ImageLock 96-well plates. After 36 h, the cells were pretreated overnight with indicated concentrations of compounds. The wells were scratched using a WoundMaker tool, and the media were replaced containing test compounds. Phase contrast images of cell migration into the wounded area were acquired hourly for 24 h. Relative wound confluence was calculated using the Cell Migration Image analysis module of the IncuCyte ZOOM software.

[2] = tested on: TEAD target genes (CCN1, CTGF, PAI1, THBS, MAYDM, MYOC); assay: qRT-PCR of TEAD target gene mRNA in RaVSMCs; type: cell-based, rat
Experimental: Figure 9 Compound 3.1 inhibits TEAD target gene expression, cell proliferation, and cell migration in RaVSMCs. RaVSMCs stably transduced with TEAD-NLUC (A) or transiently transfected with CCN1-LUC or CTGF-LUC were treated with the indicated concentrations of compound 3.1 for 6 hr. Cell conditioned media (A) or cell lysates (B−C) were assayed for nanoluciferase or fire-fly luciferase activity, respectively. VSMC were treated with 60 μM compound 3.1 for 6 h (n = 3). Total RNA was analyzed for mRNA levels of TEAD-target genes (D) or constitutive housekeeping genes (E) by qRT-PCR. VSMC were treated with indicated concentrations of compound 3.1 for 16 hr (n = 4). Total cell lysates were analyzed for CCN1 protein expression by Western blotting (F). RaVSMCs (G) or HuVSMC (H) were treated with indicated concentrations of compound 3.1 for 18 h followed by labeling in 10 μM EdU for a further 6 h (n = 4). RaVSMCs (I) or HuVSMC (J) were treated with indicated concentrations of compound 3.1 and cell migration quantified using IncuCyte real time migration assay (n = 4).
Quantitative reverse transcription (RT)-PCR: quantification of mRNA was performed by RT-qPCR, as described previously.[39] Total RNA was extracted using Ambion PureLink kits (Thermo Fisher) and reverse-transcribed using QuantiTect RT kit (Qiagen) and random primers. Quantitative PCR was performed using Roche SYBR Green using a Qiagen Roto-GeneRotor-Gene Q PCR machine (20 seconds@95 °C; 20 seconds @62 °C; 20 seconds@72 °C). Data were normalized to nonstimulated controls. Primer sequences are described in Supplement Table 2.
Supplement Figure 11: Dose repose analysis of CPD3.1 on CCN1, CTGF and THBS
RaVSMC were treated with the indicated doses of CPD3.1 and total RNA analysed for
levels of steady state mRNA of CCN1, CTGF and THBS mRNA using qRT-PCR (n=4).
(1 picture or pasted object on this page, not shown here)

[3] = tested on: CTGF promoter; assay: CTGF-luciferase reporter in RaVSMCs; type: cell-based, rat
From the text: (§1) Activation of TEAD transcription factors in response to YAP binding induces the expression of many genes that encode proteins known to be involved in promoting cell proliferation and migration (see Supplement Figure 14). The best characterized TEAD target genes associated with the promotion of cell proliferation and migration are CCN1 and CTGF.[39],[59],[60] […] We therefore tested whether CPD3 inhibited the promoter activity of known TEAD target genes, CCN1 and CTGF, in the HeLa transformed cell line and primary rat VSMCs (RaVSMCs). Cells were transfected with plasmids expressing bioluminescent firefly luciferase reporter genes under the control of either the CCN1 or CTGF promoter regions. […] As both CCN1 and CTGF are classical TEAD target genes, this is consistent with the inhibition of TEAD activity by CPD3.
(§2) Figure 9 Compound 3.1 inhibits TEAD target gene expression, cell proliferation, and cell migration in RaVSMCs. […] Total RNA was analyzed for mRNA levels of TEAD-target genes (D) or constitutive housekeeping genes (E) by qRT-PCR. […] Total cell lysates were analyzed for CCN1 protein expression by Western blotting (F). […] RaVSMCs (I) or HuVSMC (J) were treated with indicated concentrations of compound 3.1 and cell migration quantified using IncuCyte real time migration assay (n = 4). […]

[4] = tested on: CCN1 promoter; assay: CCN1-luciferase reporter in RaVSMCs; type: cell-based, rat
From the text: as §1, §2

[5] = tested on: CCN1 promoter; assay: CCN1-luciferase reporter in HeLa cells; type: cell-based, human; conditions: 6 h, indicated concentrations
From the text: as §1
TNT1-minP reporter containing the Troponin-T minimal promoter was generated by digesting 8xGTIIC-luciferase plasmid (Addgene #34615) with Kpn1 and BglII to remove the TEAD elements, followed by blunt end re-ligation. A 2.177 kb fragment of the human CCN1 promoter containing two proximal TEAD elements (Hg19;chr1:86044316–chr1:86046493) was described previously[39] and cloned into pGL4-luciferase (Promega). […]

[6] = RaVSMC dose-response, Supplement Figure 11

With Cc1ccc2c(c1)c1c3n2CCN(CC(O)CN2CCN(C(=O)c4ccco4)CC2)C3CCC1 (stereo not shown) [CPD3] the “cell migration (scratch wound)” value [1] was “dose-dependently inhibited”, the “steady-state mRNA levels of endogenous CCN1 and CTGF genes” value ([2]; RaVSMCs, Supplement Figure 4) was “significantly inhibited” and the “CTGF-luciferase reporter gene activity” value ([3]; 6 h, indicated concentrations) was “strong and significant dose-dependent inhibition”. The “CCN1-luciferase reporter gene activity” value ([4]; 6 h, indicated concentrations) was “strong and significant dose-dependent inhibition” and the “CCN1-luciferase reporter gene activity” value [5] was “strong and significant dose-dependent inhibition”.

For Cc1ccc2c(c1)c1c3n2CCNC3CCC1 (stereo not shown) [CPD3.1], the “cell migration (scratch wound)” value [1] was “significantly inhibited HeLa cell migration at 40, 60, and 80 μM”, the “concentration giving inhibition of CCN1 mRNA” value [2, 6] was 20 µM and the “concentration giving inhibition of CTGF mRNA” value [2, 6] was 40 µM. The “concentration giving inhibition of THBS mRNA” value [2, 6] was 10 µM, the “steady-state mRNA levels of TEAD target genes (CCN1, CTGF, PAI1, THBS, MAYDM, MYOC)” value ([2]; VSMC, 60 μM, 6 h) was “significantly inhibited” and the IC50 ([3]; Rattus norvegicus, 6 hr, read-out: IC50, CTGF-LUC (as printed in Figure 9C)) was 58 µM. The IC50 ([4]; Rattus norvegicus, 6 hr, read-out: IC50, CCN1-LUC (as printed in Figure 9B)) was 48 µM and the “CCN1-luciferase reporter gene activity” value [5] was “dose-dependent inhibition”.
